Assay results from patent publication US8709764B2, “Enzymatic demethylation of flavonoids” (Universiteit Gent, priority 2005, dated 2014).
Several values for one entry are separate records, joined by “and”; a condition that tells them apart may be missing. Equal values may be shown once.

Tests used:
[1] = test system: intestinal microbial communities PF+ and PF−; experiment: Simulator of the Human Intestinal Microbial Ecosystem (SHIME) dosed with IX; assay type: in vitro ADME
Description: The SHIME consists of a succession of five reactors that represent the different parts of the human gastrointestinal tract. The first two reactors (stomach [reactor 1] and small intestine [reactor 2]) are of the fill-and-draw principle to simulate different steps in food uptake and digestion, with peristaltic pumps adding a defined amount of SHIME feed (3 times/day) and pancreatic and bile liquid to the stomach and duodenum compartment and emptying the respective reactors after specified intervals. The last three compartments (resp. ascending [reactor 3], transverse [reactor 4] and descending colon [reactor 5]) are continuously stirred reactors with constant volume and pH control. Retention time and pH of the different vessels were chosen in order to resemble in vivo conditions in the different parts of the gastrointestinal tract. The passage of food in the small intestine was simulated in reactor 2 by the addition of 60 ml artificial pancreatic and bile liquid, pancreatin and NaHCO3. The temperature of the system was kept at 37° C. by a thermostat and the system was kept anaerobic by flushing it with N2 for 15 min every day. Inoculum was prepared from faecal matter as described in De Boever et al. (2000) J. Nutrition 130, 2599-2606. Reactor 3, 4, and 5 were filled with nutritional medium and pH was adjusted to the respective pH range. Finally, 50 ml inoculum was added to the last three reactors.
For the present experiment, two of the above described systems were combined as two completely separate reactors, which are driven by the same pumps (pumps with two pump heads, allowing to dose exactly the same amounts of liquids to both systems), have identical pH and temperature control and which receive the same liquid food. This way, all parameters are perfectly controlled and identical, except for the intestinal microbial communities in the 2 systems which can be introduced separately. In this case we introduced a community which was capable to activate methylated prenylflavonoids (PF+) and one which could not (PF−). After a two-week stabilization period in which normal SHIME feed was dosed, 25 mg/L IX was dosed to the SHIME feed for 4 weeks (day 15-44). In the last two weeks the selected Eubacterium limosum strain of example 2, was also administered to the first colon compartment, to simulate the application of the strain as a probiotic (day 30-44).

E. limosum = experiment: Selection of 8-PN producing E. limosum by repeated incubations with IX; assay type: in vitro ADME, Eubacterium limosum; settings: 6 parallel incubations, 25 mg/l IX, 8 days
Method: Because of the capacity of E. limosum to transform IX into 8-PN, a selection procedure was performed to obtain a strain, capable to quantitatively produce 8-PN. The selection procedure consisted of 6 parallel incubations of E. limosum [cultures from single colonies] with 25 mg/l IX and incubation for 8 days. Next, the culture which produced the highest amount of 8-PN was selected and used as inoculum for the next round of 6 parallel incubations (Table 3). […] This means that, after only three rounds, a strain was selected which converted almost all IX (high mean) and was also stable (low standard deviation).

human fecal cultures = experiment: Incubation of X or IX with human fecal cultures A-D for 8 days, conversion products detected by HPLC; assay type: in vitro ADME; settings: fecal cultures A, B and D, 25 mg/l, 8 days
Method: Fecal slurries of 20% (w/v) fresh fecal samples were prepared by homogenizing the feces with phosphate buffered saline (0.1 M, pH 7) containing 1 g/l sodiumthioglycolate as reducing agent. The particulate material was removed by centrifugation (1 min, 500×g). The supernatant is hereafter called “the culture”.
The capacity of the cultures obtained from fecal samples A, B, C and D (further referred as cultures A-D) to degrade or transform the hop prenylflavonoid IX was tested by incubating the fecal cultures (10% (v/v)) in Brain Heart Infusion broth (with 0.5 g/l cystein-HCl) with 25 mg/l of isoxanthohumol for a period of 8 days under anaerobic conditions. Extracts of the incubations at days 0 and 8 were assayed for bioactive transformation products of IX using a Yeast Estrogenic Screen, according to De Boever et al. (2001) Env. Health Perspectives 109, 691-697, based on Routledge & Sumpter (1996) Environ. Toxicol. Chem. 15, 241-248. In brief, Saccharomyces cerevisiae, was transformed with the human estrogen receptor (ERα) gene, together with expression plasmids containing responsive elements and the lacZ reporter gene (encoding the enzyme β-galactosidase). β-galactosidase activity is quantified at 540 nm by the conversion of the chromogenic substance chlorophenol red-β-D-galactopyranoside into chlorophenol red. The bioassay response is expressed as the absorbance at 540 nm divided by the optical density at 630 nm [(A540/A630)net]. The estrogenic activity of the samples was expressed as percentage equivalence to 10 nM estradiol (E2) which elicited a 100% response in the estrogen receptor bioassay. The bioassays were performed in 96-well plates in which 10 μL of the test compounds were tested and incubated with 240 μL of the genetically modified yeast (optical density of 0.25 at 610 nm). Serial dilutions of the test compounds were made in dimethylsulfoxide, which allowed generating dose-response curves for […]. The data were fitted by a 4 parametric logistic model using the Marquardt-Levenberg algorithm (Sigmaplot 4.0, SPSS Inc., Chicago, Ill., USA) (De Boever et al. (2001) Env. Health Perspectives 109, 691-697).
To further test this transformation, cultures A-D (10% (v/v)) were incubated for 8 days in Brain Heart Infusion broth (with 0.5 g/l cystein-HCl) with either X or IX at a concentration of 25 mg/l under anaerobic conditions and conversion products were detected by HPLC (Table 1). […] However, in culture C almost 40% of 8-PN was recovered, which explains the increase in estrogenic properties of culture C.

COc1cc(O)c(CC=C(C)C)c2c1C(=O)C[C@@H](c1ccc(O)cc1)O2 [IX, 5-O-methyl-8-prenylnaringenin]
Conversion of IX into 8-PN ([1]; PF+ compartment, after supplementing the E. limosum strain (from day 30)): the activation potential increased | Conversion of IX into 8-PN ([1]; PF+ compartment, only IX administered (day 15-30)): activation of methoxylated prenylflavonoids was noted in the distal colon parts | Conversion of IX into 8-PN ([1]; PF− compartment, after supplementing the E. limosum strain (from day 30)): production of the estrogenically active 8-PN was detected in the distal colon part | Conversion of IX into 8-PN ([1]; PF− compartment, only IX administered (day 15-30)): no conversion occurred | Molar % IX to 8-PN conversion, Highest (E. limosum; selection round I): 46.5% | Molar % IX to 8-PN conversion, Lowest (E. limosum; selection round I): 2% and 2.1% | Molar % IX to 8-PN conversion, Mean (stdev) (E. limosum; selection round I): 22.5% and 22.5 (19.3) % | Molar % IX to 8-PN conversion, Highest (E. limosum; selection round II): 79.4% | Molar % IX to 8-PN conversion, Lowest (E. limosum; selection round II): 24.3% | Molar % IX to 8-PN conversion, Mean (stdev) (E. limosum; selection round II): 57.9 (19.6) % | Molar % IX to 8-PN conversion, Lowest (E. limosum; selection round III): 82% and 82.1% | Molar % IX to 8-PN conversion, Mean (stdev) (E. limosum; selection round III): 90.5% and 90.5 (6.9) % | Transformation of IX (human fecal cultures): recalcitrant to transformation
